Experimental data as given in patent US5300672A (priority 1992, dated 1994).
Where two headings read alike, the source gives them in different places.

Columns and labels:
[1] = tested on: Pseudomonas fluorescens; assay: Alternate Minimum Inhibitory Concentrations Test (Table 4), Ps.fl; assay type: cell-based; conditions: Table 4 alternate test, 250 ppm to 0.8 ppm in TSB, 72 hours, 30° C.; for MIC: Pseudomonas fluorescens, read-out: MIC Ps.fl
How it was run: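 MIC taken as lowest concentration showing no growth after 72 h incubation at 30 °C in TSB. Twofold dilution series spanned 250 down to 0.8 ppm, wells inoculated with phosphate-buffer-diluted 24 h culture.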

[2] = tested on: Pseudoperonospora cubensis; assay: whole plant or invertebrate; assay type: in vivo; conditions: for pest or weed control at 50 ppm / pest or weed control at 200 ppm / pest or weed control at 12 ppm: Pseudoperonospora cubensis, in Cucumis sativus, 168 h, read-out: % Control CDM; for % Control CDM: in vivo
[3] = tested on: Piricularia oryzae; assay: whole plant or invertebrate; assay type: in vivo; conditions: for % Control RB: in vivo
[4] = tested on: Pellicularia filamentosa (f. sp. sasiki); assay: whole plant or invertebrate; assay type: in vivo; conditions: for % Control RSB: in vivo
[5] = tested on: Phytophthora infestans; assay: whole plant or invertebrate; assay type: in vivo; conditions: for pest or weed control at 100 ppm / pest or weed control at 200 ppm: Phytophthora infestans, in Solanum lycopersicum, 96 h
[6] = tested on: Puccinia recondita (f. sp. tritici Races PKB and PLD); assay: whole plant or invertebrate; assay type: in vivo; conditions: for % Control WLR: in vivo
[7] = tested on: Erysiphe graminis (f. sp. tritici); assay: whole plant or invertebrate; assay type: in vivo; conditions: for % Control WPM: in vivo
[8] = tested on: Puccinia graminis (f. sp. tritici Race 15B-2); assay: whole plant or invertebrate; assay type: in vivo; conditions: for pest or weed control at 200 ppm / pest or weed control at 100 ppm: Puccinia graminis, 336 h, read-out: % Control WSR; for % Control WSR: application rate 200 ppm
[9] = Pyricularia oryzae, read-out: % Control RB, application rate 100 ppm
[10] = Puccinia recondita, 240 h, read-out: % Control WLR
[11] = Blumeria graminis, read-out: % Control WPM
[12] = Pyricularia oryzae, read-out: % Control RB
[13] = Pyricularia oryzae, read-out: % Control RB, application rate 200 ppm
[14] = read-out: % Control TLB, application rate 100 ppm

Compound | MIC [1] | pest or weed control at 50 ppm [2] | pest or weed control at 100 ppm ([4]; 120 h, read-out: % Control RSB) | pest or weed control at 100 ppm ([5]; read-out: % Control TLB) | pest or weed control at 100 ppm [6, 10] | pest or weed control at 100 ppm [7, 11] | pest or weed control at 200 ppm [8] | pest or weed control at 200 ppm [6, 10] | pest or weed control at 100 ppm [8] | pest or weed control at 200 ppm [3, 13] | pest or weed control at 200 ppm [7, 11] | other results
CCCCCCCCNC(=O)/C=C\SC(=O)C1CCCCC1 [Compound 4, N-octyl-cis-3-(cyclohexanecarbonylthio)acrylamide] | > 250 mg/L | 99% | 0% | 90% | 0% | 0% | 50% |  |  |  |  | pest or weed control at 100 ppm [3, 9]: 80%
CCCCCCCCNC(=O)/C=C\SC(=O)c1cccc(OC)c1[N+](=O)[O-] [Compound 98, N-octyl-cis-3-[(2-nitro-3-methoxybenzoyl)thio]acrylamide] | > 250 mg/L |  |  |  |  |  |  | 50% | 0% |  |  | pest or weed control at 200 ppm [2]: 50%; pest or weed control at 200 ppm [3, 12]: 99%; pest or weed control at 200 ppm ([4]; 120 h, read-out: % Control RSB): 0%; pest or weed control at 200 ppm ([5]; read-out: % Control TLB): 90%; pest or weed control at 50 ppm [7, 11]: 0%
CCCCCCCCNC(=O)/C=C\SC(=O)c1ccc2ccccc2c1 [Compound 56, N-octyl-cis-3-[(2-naphthanoyl)thio]acrylamide] | > 250 mg/L |  |  |  |  |  | 75% | 0% |  | 0% | 0% | pest or weed control at 12 ppm [2]: 50%; pest or weed control at 50 ppm ([4]; 120 h, read-out: % Control RSB): 80%; pest or weed control at 200 ppm ([5]; read-out: % Control TLB): 80%
CCCCCCCCNC(=O)/C=C\SC(=O)C(=O)OC [Compound 30, N-octyl-cis-3-(methyloxalylthio)acrylamide] | > 250 mg/L | 70% | 0% | 80% |  | 0% | 75% |  |  |  |  | pest or weed control at 100 ppm [3, 9]: 0%; pest or weed control at 25 ppm [6, 10]: 50%
N-octyl-cis-3-[(2-butenoyl)thio]acrylamide [Compound 20] |  |  |  |  |  |  |  |  |  |  |  | MIC Ps.fl [1]: > 250 Ppm; % Control CDM [2]: 85 % Control; % Control RB [3]: 50 % Control; % Control RSB [4]: 0 % Control; % Control TLB ([5]; application rate 6 ppm): 95 % Control; % Control WLR [6]: 0 % Control; % Control WPM [7]: 0 % Control; % Control WSR [8]: 75 % Control
CCCCCCCCNC(=O)/C=C\SC(=O)CCC(=O)OC [Compound 51, N-octyl-cis-3-[(3-methoxycarbonylpropanoyl)thio]acrylamide] | > 250 mg/L | 85% |  | 80% | 0% | 0% | 90% |  |  | 0% |  | pest or weed control at 25 ppm ([4]; 120 h, read-out: % Control RSB): 90%
CCCCCCCCNC(=O)/C=C\SC(=O)/C(=C/c1ccccc1)c1ccccc1 [Compound 82, N-octyl-cis-3-[(cis-2,3-diphenylpropenoyl)thio]acrylamide] | > 250 mg/L |  |  |  |  |  |  |  | 50% | 90% | 0% | pest or weed control at 200 ppm [2]: 0%; pest or weed control at 200 ppm ([4]; 120 h, read-out: % Control RSB): 0%; pest or weed control at 200 ppm ([5]; read-out: % Control TLB, application rate 200 ppm): 0%; pest or weed control at 50 ppm [6, 10]: 50%
CCCCCCCCNC(=O)/C=C\SC(=O)c1ccccc1Br [Compound 5, N-octyl-cis-3-[(2-bromobenzoyl)thio]acrylamide] | > 250 mg/L | 50% | 0% | 90% | 0% | 0% | 75% |  |  |  |  | pest or weed control at 25 ppm ([3]; Pyricularia oryzae, read-out: % Control RB, application rate 25 ppm): 80%
CCCCCCCCNC(=O)/C=C\SC(=O)CCC(=O)OCC [Compound 52, N-octyl-cis-3-[(3-ethoxycarbonylpropanoyl)thio]acrylamide] | > 250 mg/L | 70% | 0% | 80% | 0% | 0% | 90% |  |  | 0% |  | 
CCCCCCCCNC(=O)/C=C\SC(=O)Cc1ccccc1 [Compound 12, N-octyl-cis-3-(phenylacetylthio)acrylamide] | > 250 mg/L | 85% | 0% | 90% | 0% | 0% | 90% |  |  | 90% |  | 
CCCCCCCCNC(=O)/C=C\SC(=O)C1=CC(=O)CC(C)(C)O1 [Compound 89, N-octyl-cis-3-[(3,4-dihydro-2,2-dimethyl-4-oxo-2H-pyran-6-carbonyl)thio]acrylamide] | > 250 mg/L |  |  |  |  |  |  | 90% | 80% |  | 0% | pest or weed control at 200 ppm [2]: 70%; pest or weed control at 200 ppm [3, 12]: 95%; pest or weed control at 200 ppm ([4]; 120 h, read-out: % Control RSB): 0%; pest or weed control at 200 ppm ([5]; read-out: % Control TLB): 90%
CCCCCCCCNC(=O)/C=C\SC(=O)C(C)(C)CCl [Compound 44, N-octyl-cis-3-[(2,2-dimethyl-3-chloropropanoyl)thio]acrylamide] | > 250 mg/L |  |  |  |  |  |  | 0% | 0% | 0% | 0% | pest or weed control at 200 ppm [2]: 0%; pest or weed control at 200 ppm ([4]; 120 h, read-out: % Control RSB): 0%; pest or weed control at 200 ppm ([5]; read-out: % Control TLB): 90%
CCCCCCCCNC(=O)/C=C\SC(=O)C(C)(C)C [Compound 25, N-octyl-cis-3-[(1,1-dimethylpropanoyl)thio]acrylamide] | > 250 mg/L | 85% | 0% |  | 0% | 0% |  |  | 90% |  |  | pest or weed control at 100 ppm [3, 9]: 0%; pest or weed control at 100 ppm [5, 14]: 100%
CCCCCCCCNC(=O)/C=C\SC(=O)CCCCl [Compound 29, N-octyl-cis-3-[(4-chlorobutanoyl)thio]acrylamide] | > 250 mg/L | 85% | 0% | 90% | 0% | 0% | 75% |  |  | 75% |  | 
CCCCCCCCNC(=O)/C=C\SC(=O)c1ccco1 [Compound 15, N-octyl-cis-3-(2-furoylthio)acrylamide] | > 250 mg/L | 50% | 0% |  | 95% | 0% | 90% |  |  |  |  | pest or weed control at 100 ppm [3, 12]: 100%; pest or weed control at 100 ppm [5, 14]: 95%
CCCCCCCCNC(=O)/C=C\SC(=O)c1ccc([N+](=O)[O-])o1 [Compound 17, N-octyl-cis-3-[(5-nitro-2-furoyl)thio]acrylamide] | > 250 mg/L | 50% | 0% | 90% | 0% | 0% | 95% |  |  |  |  | pest or weed control at 100 ppm [3, 9]: 80%
CCCCCCCCNC(=O)/C=C\SC(=O)c1ccc(F)cc1 [Compound 3, N-octyl-cis-3-[(4-fluorobenzoyl)thio]acrylamide] | > 250 mg/L | 85% | 0% | 90% | 0% | 0% | 75% |  |  |  |  | pest or weed control at 100 ppm [3, 9]: 80%
CCCCCCCCNC(=O)/C=C\SC(=O)/C=C/c1ccco1 [Compound 68, N-octyl-cis-3-[(trans-3-(2-furan)propenoyl)thio]acrylamide] | > 250 mg/L |  |  |  |  |  | 90% | 0% |  |  | 0% | pest or weed control at 12 ppm [2]: 70%; pest or weed control at 50 ppm ([3]; Pyricularia oryzae, read-out: % Control RB, application rate 50 ppm): 80%; pest or weed control at 200 ppm ([4]; 120 h, read-out: % Control RSB): 0%; pest or weed control at 200 ppm ([5]; read-out: % Control TLB): 90%
CCCCCCCCNC(=O)C=CSC(CO)COc1ccccc1 (stereo not drawn) [Compound 40, N-octyl-cis-3-[(1-hydroxy-3-phenoxy-2-propane)thio]acrylamide] |  |  |  |  |  |  |  |  |  |  |  | MIC Ps.fl [1]: > 250 Ppm; % Control CDM [2]: 85 % Control; % Control RB [3]: 75 % Control; % Control RSB [4]: 0 % Control; % Control TLB ([5]; application rate 100 ppm): 95 % Control; % Control WLR [6]: 0 % Control; % Control WPM [7]: 50 % Control; % Control WSR [8]: 75 % Control
CCCCCCCCNC(=O)/C=C\SC(=O)c1ccc([N+](=O)[O-])c([N+](=O)[O-])c1 [Compound 112, N-octyl-cis-3-[(3,4-dinitrobenzoyl)thio]acrylamide] | > 250 mg/L |  |  | 90% |  |  |  | 50% | 50% | 0% | 0% | pest or weed control at 200 ppm [2]: 99%
